ChEMBL document CHEMBL1201862, “PubChem BioAssay data set” (2004)
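All cell lines were grown in 96-well plates and treated with compound for 48 hours. Here, GI50 denotes the concentration required for 50% inhibition of growth.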 Active and inactive are the calls of the source. Cut-off read from the data, not from the text of the source: active = GI50 up to about 1.1 µM and inactive = higher.

What was measured:
Assay in all cases: inhibition of tumour cell growth, NCI panel, 48 h
K562 = system: K562
NCI-H23 = system: NCI-H23
SF-268 = system: SF-268
NCI-H522 = system: NCI-H522
HCC 2998 = system: HCC 2998
HOP-92 = system: HOP-92
M14 = system: M14
786-0 = system: 786-0
EKVX = system: EKVX
HOP-62 = system: HOP-62
U-251 = system: U-251
PC-3 = system: PC-3
SF-539 = system: SF-539
HT-29 = system: HT-29
OVCAR-3 = system: OVCAR-3
DU-145 = system: DU-145
MDA-MB-231 = system: MDA-MB-231
SNB-19 = system: SNB-19
MDA-MB-435 = system: MDA-MB-435
UO-31 = system: UO-31

CC[C@H](C)C1=C(O)[N@+]2([O-])Oc3ccc(-c4c(O)c(O)c(-c5ccc(OC(C)=O)cc5)c(OC(C)=O)c4OC(C)=O)cc3O[C@]2([C@@H](C)CC)C(=O)N1O
GI50 (K562): 12.3 µM (inactive) | GI50 (NCI-H23): > 50 µM (inactive) | GI50 (SF-268): 33.3 µM (inactive) | GI50 (NCI-H522): 8.43 µM (inactive) | GI50 (HCC 2998): 11.7 µM (inactive) | GI50 (HOP-92): 11.6 µM (inactive) | GI50 (M14): 27.6 µM (inactive) | GI50 (786-0): 21.4 µM (inactive) | GI50 (EKVX): > 50 µM (inactive) | GI50 (HOP-62): 32 µM (inactive) | GI50 (U-251): 18.6 µM (inactive) | GI50 (PC-3): 34 µM (inactive) | GI50 (SF-539): 13.1 µM (inactive) | GI50 (HT-29): 25.3 µM (inactive) | GI50 (OVCAR-3): 16.4 µM (inactive) | GI50 (DU-145): > 50 µM (inactive) | GI50 (MDA-MB-231): 21.9 µM (inactive) | GI50 (SNB-19): 45.3 µM (inactive) | GI50 (MDA-MB-435): 27.9 µM (inactive) | GI50 (UO-31): > 50 µM (inactive)

Cn1cnc(N2CCCC2)c(C#N)c1=O
GI50 (K562): > 100 µM (inactive) | GI50 (NCI-H23): > 100 µM (inactive) | GI50 (SF-268): > 100 µM (inactive) | GI50 (NCI-H522): > 100 µM (inactive) | GI50 (HCC 2998): > 100 µM (inactive) | GI50 (HOP-92): > 100 µM (inactive) | GI50 (M14): > 100 µM (inactive) | GI50 (786-0): > 100 µM (inactive) | GI50 (EKVX): > 100 µM (inactive) | GI50 (HOP-62): > 100 µM (inactive) | GI50 (U-251): > 100 µM (inactive) | GI50 (PC-3): > 100 µM (inactive) | GI50 (SF-539): > 100 µM (inactive) | GI50 (HT-29): > 100 µM (inactive) | GI50 (OVCAR-3): > 100 µM (inactive) | GI50 (DU-145): > 100 µM (inactive) | GI50 (MDA-MB-231): > 100 µM (inactive) | GI50 (SNB-19): > 100 µM (inactive) | GI50 (MDA-MB-435): > 100 µM (inactive) | GI50 (UO-31): > 100 µM (inactive)

CC(=O)NC1C(OCc2ccccc2)OC(CO)C(O)C1OC(C)C(=O)NC(C)C(=O)NC(CCC(=O)NCCCNc1c2ccccc2nc2cccc([N+](=O)[O-])c12)C(N)=O (configuration not stated)
GI50 (K562): 1.17 µM (inactive) | GI50 (NCI-H23): 2.55 µM (inactive) | GI50 (SF-268): 1.38 µM (inactive) | GI50 (NCI-H522): 1.48 µM (inactive) | GI50 (HCC 2998): 1.14 µM (inactive) | GI50 (HOP-92): 1.99 µM (inactive) | GI50 (M14): 1.97 µM (inactive) | GI50 (786-0): 2.77 µM (inactive) | GI50 (EKVX): 3.57 µM (inactive) | GI50 (HOP-62): 1.91 µM (inactive) | GI50 (U-251): 1.6 µM (inactive) | GI50 (PC-3): 0.618 µM (active) | GI50 (SF-539): 3.86 µM (inactive) | GI50 (HT-29): 0.29 µM (active) | GI50 (OVCAR-3): 2.34 µM (inactive) | GI50 (DU-145): 1.56 µM (inactive) | GI50 (MDA-MB-231): 1.36 µM (inactive) | GI50 (SNB-19): 3.67 µM (inactive) | GI50 (MDA-MB-435): 1.16 µM (inactive) | GI50 (UO-31): 2.5 µM (inactive)

c1ccc(C(C2=Nc3cccc4cccc(c34)N2)c2ccccc2)cc1
GI50 (K562): 19 µM (inactive) | GI50 (NCI-H23): 28.1 µM (inactive) | GI50 (SF-268): 24.4 µM (inactive) | GI50 (NCI-H522): 16.6 µM (inactive) | GI50 (HCC 2998): 20.6 µM (inactive) | GI50 (HOP-92): 18.7 µM (inactive) | GI50 (M14): 18.1 µM (inactive) | GI50 (786-0): 26.2 µM (inactive) | GI50 (EKVX): 30.3 µM (inactive) | GI50 (HOP-62): 23.1 µM (inactive) | GI50 (U-251): 18 µM (inactive) | GI50 (PC-3): 23 µM (inactive) | GI50 (SF-539): 17.2 µM (inactive) | GI50 (HT-29): 23.2 µM (inactive) | GI50 (OVCAR-3): 20.3 µM (inactive) | GI50 (DU-145): 32.2 µM (inactive) | GI50 (MDA-MB-231): 30.8 µM (inactive) | GI50 (SNB-19): 37.8 µM (inactive) | GI50 (MDA-MB-435): 25.5 µM (inactive) | GI50 (UO-31): 17.8 µM (inactive)

Cc1c(N)nc([C@H](CC(N)=O)NC[C@H](N)C(N)=O)nc1C(=O)N[C@H](C(=O)N[C@H](C)[C@@H](O)[C@H](C)C(=O)N[C@H](C(=O)NCCc1nc(-c2nc(C(=O)NCCC[S+](C)C)cs2)cs1)[C@@H](C)O)C(OC1OC(CO)C(O)C(O)C1OC1OC(CO)C(O)C(OC(N)=O)C1O)c1c[nH]cn1 (some centres not stated)
GI50 (K562): 8.45 µM (inactive) | GI50 (NCI-H23): 0.637 µM (active) | GI50 (SF-268): 1.15 µM (inactive) | GI50 (NCI-H522): 0.622 µM (active) | GI50 (HCC 2998): 9.62 µM (inactive) | GI50 (HOP-92): 0.0841 µM (active) | GI50 (M14): 1.56 µM (inactive) | GI50 (786-0): 1.05 µM (active) | GI50 (EKVX): 17.8 µM (inactive) | GI50 (HOP-62): 0.0838 µM (active) | GI50 (U-251): 0.834 µM (active) | GI50 (PC-3): 7.73 µM (inactive) | GI50 (SF-539): 0.02 µM (active) | GI50 (HT-29): 14.1 µM (inactive) | GI50 (OVCAR-3): 4.67 µM (inactive) | GI50 (DU-145): 3.66 µM (inactive) | GI50 (MDA-MB-231): 15.8 µM (inactive) | GI50 (SNB-19): 3.96 µM (inactive) | GI50 (MDA-MB-435): 19.6 µM (inactive) | GI50 (UO-31): 0.478 µM (active)

Oc1ccc2ccccc2c1/C=C/c1ccc2c(Br)cc(Br)c(O)c2n1
GI50 (K562): 3.11 µM (inactive) | GI50 (NCI-H23): 5.96 µM (inactive) | GI50 (SF-268): 5.87 µM (inactive) | GI50 (NCI-H522): 3.56 µM (inactive) | GI50 (HCC 2998): 6.97 µM (inactive) | GI50 (HOP-92): 11.5 µM (inactive) | GI50 (M14): 7.38 µM (inactive) | GI50 (786-0): 5.2 µM (inactive) | GI50 (EKVX): 3.11 µM (inactive) | GI50 (HOP-62): 8.17 µM (inactive) | GI50 (U-251): 4.54 µM (inactive) | GI50 (PC-3): 4.57 µM (inactive) | GI50 (SF-539): 2.53 µM (inactive) | GI50 (HT-29): 9.73 µM (inactive) | GI50 (OVCAR-3): 2.49 µM (inactive) | GI50 (DU-145): 12 µM (inactive) | GI50 (MDA-MB-231): 5.58 µM (inactive) | GI50 (SNB-19): 6.73 µM (inactive) | GI50 (MDA-MB-435): 11.8 µM (inactive) | GI50 (UO-31): 4.05 µM (inactive)

COc1cc(C2c3cc4c(cc3OC(NN=C(C)C)C2C)OCO4)cc(OC)c1O (configuration not stated)
GI50 (NCI-H23): 26.7 µM (inactive) | GI50 (SF-268): 31.5 µM (inactive) | GI50 (NCI-H522): 3.94 µM (inactive) | GI50 (HCC 2998): 14.4 µM (inactive) | GI50 (HOP-92): 62.4 µM (inactive) | GI50 (M14): 22.6 µM (inactive) | GI50 (786-0): 28.1 µM (inactive) | GI50 (U-251): 29.2 µM (inactive) | GI50 (PC-3): 20.8 µM (inactive) | GI50 (SF-539): 21.2 µM (inactive) | GI50 (HT-29): 36 µM (inactive) | GI50 (OVCAR-3): 19.5 µM (inactive) | GI50 (DU-145): 24.1 µM (inactive) | GI50 (MDA-MB-231): 27.9 µM (inactive) | GI50 (SNB-19): 85.5 µM (inactive) | GI50 (MDA-MB-435): 1.24 µM (inactive) | GI50 (UO-31): 46.9 µM (inactive)
